In EP0082498A2, “Beta-lactam compounds and process for the preparation thereof” (SAGAMI CHEMICAL RESEARCH CENTER, priority 1981, dated 1983):
In brackets after ≈: the same amount, converted by molar mass. Structures can show the parent of a compound that is named as a salt. Where two headings read alike, the source gives them in different places.

What was measured:
Experiment in all cases: Antibacterial activity, minimum inhibition concentration (MIC)
Type in all cases: cell-based
[1] = tested on: Escherichia coli NIHJ-JC-2
Experimental: (§1) Antibacterial activities of the compounds according to this invention, which had been prepared in the preceding Examples, were measured according to the method prescribed by The Committee of Amendment of "The method for measurement of the minimum inhibition concentration", The Chemotherapy Association, Japan (See Chemotherapy, Vol. 29, No. 1, pp. 76 ~ 79 (1981)).
(§2) The test results are shown in terms of the minimum inhibition concentration (MIC) (unit: µg/mℓ) in the following Tables 1 to 4.

[2] = tested on: Staphylococcus aureus FDA 209 PJC-1
Experimental: as §1, §2

[3] = tested on: Pseudomonas aeruginosa NCTC 10490; conditions: NCTC10490, Table 2
Experimental: as §1, §2

[4] = tested on: Proteus morganii IFO 3848; conditions: for MIC: Morganella morganii
Experimental: as §1, §2

[5] = tested on: Proteus mirabillis IFO 3849; conditions: Table 3
Experimental: as §1, §2

[6] = tested on: Klebsiella pneumoniae PCI-602; conditions: PCI602, Table 3
Experimental: as §1, §2

[7] = tested on: Salmonella typhimurium IID-971; conditions: Salmonella enterica, Table 3; Salmonella typhimurium IID-971; read-out: minimum inhibition concentration (MIC)
Experimental: as §1, §2

[8] = tested on: Staphylococcus aureus MS 353; conditions: for MIC: Staphylococcus aureus
Experimental: as §1, §2

[9] = tested on: Salmonella typhimrium 901
Experimental: as §1, §2

[10] = IFO3848, Table 2, Proteus morganii IFO-3848, read-out: minimum inhibition concentration (MIC)
[11] = MS353, Table 4, Staphylococcus aureus MS 353, read-out: minimum inhibition concentration (MIC)
[12] = Table 4, Salmonella typhimrium 901, read-out: minimum inhibition concentration (MIC)
[13] = IFO3848, Table 4, Proteus morganii IFO 3848, read-out: minimum inhibition concentration (MIC)

**Q.** With `CCSc1nnc(SCC2=C(C(=O)O)N3C(=O)C(NC(=O)C(=CCl)c4csc(N)n4)C3SC2)s1` (single isomer, unassigned) [Example 22, 7-[2-Chloromethylene-2-(2-aminothiazol-4-yl)acetamido]-3-(2-ethylthio-l,3,4-thiadiazol-5-yl)thiomethyl-3-cephem-4-carboxylic acid hydrochloride] as the compound, how does the MIC ([1]; NIHJJC2, Table 2) read?
**A.** 0.2 µg/mL

**Q.** What about the MIC ([2]; FDA209, Table 2) of the same compound?
**A.** 0.2 µg/mL

**Q.** And the MIC [3]?
**A.** 1.56 µg/mL

**Q.** What about the MIC [4, 10] of the same compound?
**A.** ≤ 0.0063 µg/mL

**Q.** Which MIC ([1]; NIHJJC2, Table 3) does the source give for `Cn1nnnc1SCC1=C(C(=O)O)N2C(=O)C(NC(=O)C(=CCl)c3csc(N)n3)C2SC1` (single isomer, unassigned) [Example 27, sodium 7-[2-chloromethylene-2-(2-aminothiazol-4-yl)acetamido]-3-(1-methyl-1H-tetrazol-5-yl)thiomethyl-3-cephem-4-carboxylate] here?
**A.** 0.2 µg/mL

**Q.** What about the MIC ([2]; FDA209, Table 3) of the same compound?
**A.** 0.78 µg/mL

**Q.** What about the MIC [5] of the same compound?
**A.** 0.2 µg/mL

**Q.** And the MIC [6]?
**A.** < 0.00625 µg/mL

**Q.** And the MIC [7]?
**A.** 0.78 µg/mL

**Q.** What does the source list for `CC(=O)OCC1=C(C(=O)O)N2C(=O)C(NC(=O)C(=CCl)c3csc(N)n3)C2SC1` (single isomer, unassigned) [Example 28, sodium 7-[2-chloromethylene-2-(2-aminothiazol-4-yl)-acetamido]-3-acetoxymethyl-3-cephem-4-carboxylate]?
**A.** MIC ([1]; NIHJJC2, Table 3): 0.1 µg/mL; MIC ([2]; FDA209, Table 3): 12.5 µg/mL; MIC [5]: 0.2 µg/mL; MIC [6]: 0.05 µg/mL; MIC [7]: 12.5 µg/mL

**Q.** `COC(=O)Cn1nnnc1SCC1=C(C(=O)O)N2C(=O)C(NC(=O)C(=CCl)c3csc(N)n3)C2SC1` (single isomer, unassigned) [Example 30, disodium 7-[2-chloromethylene-2-(2-aminothiazol-4-yl)acetamido]-3-(l-methoxycarbonylmethyl-1,2,3,4-tetrazol-5-yl)thiomethyl-3-cephem-4-carboxylate] was tested. Which MIC [8, 11] did it give?
**A.** 0.78 µg/mL

**Q.** What about the MIC [9, 12] of the same compound?
**A.** 0.2 µg/mL

**Q.** Which results are given for `Nc1nc(C(=CCl)C(=O)NC2C(=O)N3C(C(=O)O)=C(CSc4nnnn4CCO)CSC23)cs1` (single isomer, unassigned) [Example 31]?
**A.** MIC [8, 11]: 0.78 µg/mL (≈ 1.43 µM); MIC [9, 12]: 0.39 µg/mL (≈ 0.716 µM); MIC [4, 13]: ≤ 0.00625 µg/mL

**Q.** How did the MIC [8, 11] turn out when `N#CCn1nnnc1SCC1=C(C(=O)O)N2C(=O)C(NC(=O)C(=CCl)c3csc(N)n3)C2SC1` (single isomer, unassigned) [Example 32, sodiun 7-[2-chloromethylene-2-(2-aminothiazol-4-yl)acetamido]-3-(l-cyanomethyl-l,2,3,4-tetrazol-5-yl)thiomethyl-3-cephem-4-carboxylate] was run?
**A.** 1.56 µg/mL (≈ 2.89 µM)

**Q.** What about the MIC [9, 12] of the same compound?
**A.** 0.78 µg/mL (≈ 1.44 µM)

**Q.** What about the MIC [4, 13] of the same compound?
**A.** 0.0125 µg/mL (≈ 0.0231 µM)

**Q.** With `Nc1nc(C(=CCl)C(=O)NC2C(=O)N3C(C(=O)O)=C(CSc4cnns4)CSC23)cs1` (single isomer, unassigned) [Example 33, sodium 7-[2-chloromethylene-2-(2-aminothiazol-4-yl)acetamido]-3-(1,2,3-thiadiazol-5-yl)thiomethyl-3-cephem-4-carboxylate] as the compound, how does the MIC [8, 11] read?
**A.** 0.1 µg/mL

**Q.** What about the MIC [9, 12] of the same compound?
**A.** 0.2 µg/mL

**Q.** And the MIC [4, 13]?
**A.** ≤ 0.00625 µg/mL

**Q.** How did the MIC [8, 11] turn out when `Nc1nc(C(=CCl)C(=O)NC2C(=O)N3C(C(=O)O)=C(CSc4cnn[nH]4)CSC23)cs1` (single isomer, unassigned) [Example 34, sodium7-[2-chloramethylene-2-(2-aminothiazol-4-yl)acetamido]-3-(l,2,3-triazol-5-yl)thiomethyl-3-cephem-4-carboxylate] was run?
**A.** 0.78 µg/mL

**Q.** What about the MIC [9, 12] of the same compound?
**A.** 0.78 µg/mL

**Q.** And the MIC [4, 13]?
**A.** 0.0125 µg/mL

**Q.** What does the source list for `Cn1ncc(=O)nc1SCC1=C(C(=O)O)N2C(=O)C(NC(=O)C(=CCl)c3csc(N)n3)C2SC1` (single isomer, unassigned) [Example 36, sodium 7-[2-chloromethylene-2-(2-aminothiazol-4-yl)acetamido]-3-(2-dihydro-2-methyl-5-oxo-as-triazine-3-yl)thiomethyl-3-cephem-4-carboxylate]?
**A.** MIC [8, 11]: 0.39 µg/mL; MIC [9, 12]: 0.39 µg/mL; MIC [4, 13]: ≤ 0.00625 µg/mL

**Q.** Which MIC [8, 11] does the source give for `Nc1nc(C(=CI)C(=O)NC2C(=O)N3C(C(=O)O)=C(CSc4nncs4)CS[C@H]23)cs1` (single isomer, unassigned) [Example 37, 7-[2-Iodomethylene-2-(2-aminothiazol-4-yl)acetamido]-3-(1,3,4-thiadiazol-2-yl)thiomethyl-3-cephem-4-carboxylic acid] here?
**A.** 0.2 µg/mL (≈ 0.329 µM)

**Q.** And the MIC [9, 12]?
**A.** 0.39 µg/mL (≈ 0.641 µM)

**Q.** What about the MIC [4, 13] of the same compound?
**A.** ≤ 0.00313 µg/mL

**Q.** Which MIC ([8]; MS353, read-out: minimum inhibition concentration (MIC)) does the source give for `CC1(C)S[C@@H]2C(NC(=O)C(=CCl)c3csc(N)n3)C(=O)N2[C@H]1C(=O)[O-].[Na+]` (single isomer, unassigned) [Example 38, Sodium 6-[2-chloromethylene-2-(2-aminothiazol-4-yl)acetamido]penicillanate] here?
**A.** 0.2 µg/mL

**Q.** What about the MIC ([9]; Salmonella, 901, read-out: minimum inhibition concentration (MIC)) of the same compound?
**A.** 3.12 µg/mL

**Q.** And the MIC ([4]; IFO3848, read-out: minimum inhibition concentration (MIC))?
**A.** 0.05 µg/mL

**Q.** Which results are given for `Nc1nc(C(=CBr)C(=O)NC2C(=O)N3C(C(=O)O)=C(CSc4nncs4)CS[C@H]23)cs1` (stereo partly drawn) [Example 25, 7-[2-Bromomethylene-2-(2-aminothiazol-4-yl)acetamido]-3-(1,3,4-thiadiazol-2-yl)thiomethyl-3-cephem-4-carboxylic acid]?
**A.** MIC ([1]; NIHJJC2, Table 2): 0.1 µg/mL (≈ 0.178 µM); MIC ([2]; FDA209, Table 2): 0.2 µg/mL (≈ 0.356 µM); MIC [3]: 0.2 µg/mL (≈ 0.356 µM); MIC [4, 10]: ≤ 0.0063 µg/mL

**Q.** Which MIC ([1]; NIHJJC2, Table 2) does the source give for `Cc1nnc(SCC2=C(C(=O)O)N3C(=O)C(NC(=O)C(=CBr)c4csc(N)n4)C3SC2)s1` (stereo not drawn) [Example 26, 7-[2-Bromomethylene-2-(2-aminothiazol-4-yl)acetamido]-3-(2-methyl-1,3,4-thiadiazol-5-yl)thiomethy1-3-cephem-4-carboxylic acid] here?
**A.** 0.1 µg/mL (≈ 0.174 µM)

**Q.** What about the MIC ([2]; FDA209, Table 2) of the same compound?
**A.** 0.39 µg/mL (≈ 0.678 µM)

**Q.** What about the MIC [3] of the same compound?
**A.** 0.39 µg/mL (≈ 0.678 µM)

**Q.** And the MIC [4, 10]?
**A.** ≤ 0.0063 µg/mL

**Q.** “sodium 7-[2-chloromethylene-2-(2-aminothiazol-4-yl)-acetamido]-3-(2-hydroxycarbonylmethylthio-1,3,4-thiadia- zol-5-yl)thiomethyl-3-cephem-4-carboxylate [Example 35]” was tested. Which “minimum inhibition concentration (MIC)” value ([8]; Table 4, Staphylococcus aureus MS 353) did it give?
**A.** 0.78 µg/mL

**Q.** What about the “minimum inhibition concentration (MIC)” value ([9]; Table 4, Salmonella typhimrium 901) of the same compound?
**A.** 0.78 µg/mL

**Q.** And the “minimum inhibition concentration (MIC)” value ([4]; Table 4, Proteus morganii IFO 3848)?
**A.** ≤0.00625 µg/mL
